Data set [1] deals with SMN2 minigene (full length SMN2 minigene mRNA containing SMN2 exon 7). As to the kind of experiment: SMN2 minigene mRNA splicing RT-qPCR assay in cultured cells. The format is cell-based, human. The note with it: Homo sapiens, HEK293-H, read-out: EC1.5x for production of full length SMN2 mRNA. The method, boiled down:
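HEK293H cells stably carrying the SMN2-A minigene treated 24 h at 37° C with compound (DMSO, 200× stock), then lysed. Multiplex RT-qPCR (SMN primers 0.4 μM final; 40 cycles) measures full-length exon 7-containing minigene mRNA, normalized to GAPDH and to vehicle; EC1.5x derived and binned by stars.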

For another data set, the system named is Smn protein. As to the kind of experiment: Smn protein assay in cultured cells (SMN HTRF). The format is cell-based, human. The note with it: 48 hours; for EC1.5x (concentration giving 1.5-fold Smn protein increase): SMA Type 1 patient fibroblast cells (GM03813), 7-point concentration curve, SMN HTRF, concentration producing 1.5 times Smn protein vs DMSO vehicle control, read-out: EC1.5x for Smn protein expression; for maximum fold (Fold) increase of Smn protein: SMA patient fibroblast cells, 7-point concentration data, fold increase relative to vehicle control (SMN HTRF). The method, boiled down:
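Lysates in RIPA with protease inhibitors are incubated overnight at room temperature with HTRF anti-SMN antibodies. EC1.5x is derived from fold increase in ΔF over vehicle.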

Where [2] appears, read: HEK293H cells stably transfected with SMN2-A minigene, 24 hours, 7-point concentration curve, 1.5-fold relative to vehicle-treated cells.

Like-named read-outs stand apart in the source and are kept apart here.

`Cc1cn2cc(-c3cc4ccc(C5CCN(CCCF)CC5)cc4oc3=O)nc2cn1` [Compound 917, 7-[1-(3-fluoropropyl)piperidin-4-yl]-3-(6-methylimidazo[1,2-a]pyrazin-2-yl)-2H-chromen-2-one] returned a melting point of 224 to 234 °C. The EC (1.5-fold) in data set [1] (setting [2]) was less than 0.1 µM. Moreover, in the data set with Smn protein, the EC1.5x (concentration giving 1.5-fold Smn protein increase) is less than 300 nM and the “maximum fold (Fold) increase of Smn protein” value (from here on “maximum fold (Fold) increase”) was “***** (fold increase >1.65)”.
In turn, `CCc1ccn2cc(-c3cc4ccc(N5CCN(C)CC5)cc4oc3=O)nc2c1` [Compound 288, 3-(7-ethylimidazo[1,2-a]pyridin-2-yl)-7-(4-methylpiperazin-1-yl)-2H-chromen-2-one] showed a melting point of 203 to 211 °C. For the same compound, in data set [1] (setting [2]), the EC (1.5-fold) lay within 1 to 3 µM. The “maximum fold (Fold) increase” value in the data set on Smn protein was “* (maximum fold increase of ≤1.2)”.
Consider `CCN(CC)CCCCc1ccc2cc(-c3cn4cc(C)nc(C)c4n3)c(=O)oc2c1` [Compound 970, 7-[4-(diethylamino)butyl]-3-(6,8-dimethylimidazo[1,2-a]pyrazin-2-yl)-2H-chromen-2-one], for which the melting point is 212 to 216 °C. In addition, in data set [1] (setting [2]), the EC (1.5-fold) is 0.3 to 1 µM. In the data set on Smn protein, the EC1.5x (concentration giving 1.5-fold Smn protein increase) was in the range of 300 to 1000 nM and the “maximum fold (Fold) increase” value is on record as “***** (fold increase >1.65)”.
In the case of `O=c1oc2cc(CN3CCNCC3)ccc2cc1-c1nc2c(Cl)cccc2s1` [Compound 7, 3-(4-chloro-1,3-benzothiazol-2-yl)-7-(piperazin-1-ylmethyl)-2H-chromen-2-one], the melting point was in the range of 222 to 226 °C. Further, the EC (1.5-fold) in data set [1] (setting [2]) was in the range of 3 to 30 µM. For the same compound, the “maximum fold (Fold) increase” value with Smn protein was “* (maximum fold increase of ≤1.2)”.
For the compound `COc1cccc(-c2cc3c(F)cc(N4CCN[C@@H](C)C4)cc3oc2=O)n1` [Compound 469, 5-fluoro-3-(6-methoxypyridin-2-yl)-7-[(3S)-3-methylpiperazin-1-yl]-2H-chromen-2-one], the melting point lay within 199 to 201 °C. In addition, the EC (1.5-fold) in data set [1] (setting [2]) fell in the range of 0.1 to 0.3 µM. Also, in the data set on Smn protein, the “maximum fold (Fold) increase” value is “** (fold increase between >1.2 and ≤1.35)”.
Compound `Cc1csc2nc(-c3cc4ccc(N5CCN(C)CC5)cc4oc3=O)cn12` [Compound 185, 3-(3-methylimidazo[2,1-b][1,3]thiazol-6-yl)-7-(4-methylpiperazin-1-yl)-2H-chromen-2-one] displayed a melting point of 213 to 216 °C. Also, the EC (1.5-fold) in data set [1] (setting [2]) was 3 to 30 µM. Moreover, the “maximum fold (Fold) increase” value with Smn protein is reported as “* (maximum fold increase of ≤1.2)”.
For the compound `Cc1cc(F)c2nc(-c3cc4ccc(N5CCN(C)CC5)cc4oc3=O)cn2c1` [Compound 353, 3-(8-fluoro-6-methylimidazo[1,2-a]pyridin-2-yl)-7-(4-methylpiperazin-1-yl)-2H-chromen-2-one], the melting point is 252 to 262 °C. Further, the EC (1.5-fold) in data set [1] (setting [2]) is less than 0.1 µM. In the data set on Smn protein, the EC1.5x (concentration giving 1.5-fold Smn protein increase) lay within 1000 to 3000 nM; the “maximum fold (Fold) increase” value is “**** (fold increase between >1.5 and ≤1.65)”.
For `COc1ccc(-c2cc3ccc(N4CCN[C@@H](C)C4)cc3oc2=O)cc1` [Compound 449, 3-(4-methoxyphenyl)-7-[(3S)-3-methylpiperazin-1-yl]-2H-chromen-2-one], the melting point lay in the range of 123 to 126 °C. Moreover, in data set [1] (setting [2]), the EC (1.5-fold) lay in the range of 1 to 3 µM. The “maximum fold (Fold) increase” value with Smn protein is listed as “* (maximum fold increase of ≤1.2)”.
`Cc1ccc2oc(-c3cc4ccc(N5CCN6CCC[C@@H]6C5)cc4oc3=O)cc2n1` [Compound 721, 7-[(8aR)-hexahydropyrrolo[1,2-a]pyrazin-2(1H)-yl]-3-(5-methylfuro[3,2-b]pyridin-2-yl)-2H-chromen-2-one] displayed a melting point of 195 to 198 °C. In addition, the EC (1.5-fold) in data set [1] (setting [2]) lay within 1 to 3 µM. Further, the “maximum fold (Fold) increase” value in the data set on Smn protein was “* (maximum fold increase of ≤1.2)”.
As to `CCN(C)CCOc1ccc2cc(-c3cn4cc(C)nc(C)c4n3)c(=O)oc2c1` [Compound 937, 3-(6,8-dimethylimidazo[1,2-a]pyrazin-2-yl)-7-{2-[ethyl(methyl)amino]ethoxy}-2H-chromen-2-one], the melting point was 190 to 196 °C. The EC (1.5-fold) in data set [1] (setting [2]) is less than 0.1 µM. For the same compound, in the data set with Smn protein, the EC1.5x (concentration giving 1.5-fold Smn protein increase) was less than 300 nM and the “maximum fold (Fold) increase” value is “***** (fold increase >1.65)”.
`Cc1cn2cc(-c3cc4ccc(N5CC(N6CCCCC6C)C5)cc4oc3=O)nc2c(C)n1` (stereo not drawn) [Compound 942, 3-(6,8-dimethylimidazo[1,2-a]pyrazin-2-yl)-7-[3-(2-methylpiperidin-1-yl)azetidin-1-yl]-2H-chromen-2-one] showed a melting point of 220 to 228 °C. For the same compound, the EC (1.5-fold) in data set [1] (setting [2]) was less than 0.1 µM. For the same compound, in the data set on Smn protein, the EC1.5x (concentration giving 1.5-fold Smn protein increase) was 1000 to 3000 nM; the “maximum fold (Fold) increase” value was “*** (fold increase between >1.35 and ≤1.5)”.
With `Cc1ccn2cc(-c3cc4ccc(N5CCNC(C)(C)C5)cc4oc3=O)nc2c1` [Compound 215, 7-(3,3-dimethylpiperazin-1-yl)-3-(7-methylimidazo[1,2-a]pyridin-2-yl)-2H-chromen-2-one], the melting point lay within 217 to 223 °C. In data set [1] (setting [2]), the EC (1.5-fold) is 1 to 3 µM. Besides, in the data set with Smn protein, the “maximum fold (Fold) increase” value is “* (maximum fold increase of ≤1.2)”.
On the same counts, the results for `CSc1nccn2cc(-c3cc4ccc(N5C[C@@H](C)N[C@@H](C)C5)cc4oc3=O)nc12` [Compound 400, 7-[(3R,5S)-3,5-dimethylpiperazin-1-yl]-3-[8-(methylsulfanyl)imidazo[1,2-a]pyrazin-2-yl]-2H-chromen-2-one] are 283 to 285 °C, 3 to 30 µM and “* (maximum fold increase of ≤1.2)”.
`Cc1cn2cc(-c3cc4ccc(N(C)C5CCN(Cc6ccccc6)C5)cc4oc3=O)nc2c(C)n1` (stereo not drawn) [Compound 616, 7-[(1-benzylpyrrolidin-3-yl)(methyl)amino]-3-(6,8-dimethylimidazo[1,2-a]pyrazin-2-yl)-2H-chromen-2-one]: the melting point lay in the range of 150 to 152 °C. In data set [1] (setting [2]), the EC (1.5-fold) is 0.1 to 0.3 µM. The “maximum fold (Fold) increase” value in the data set on Smn protein was “** (fold increase between >1.2 and ≤1.35)”.
`Cc1ccn2cc(-c3cc4ccc(N5CCN6CCC5CC6)cc4oc3=O)nc2c1` [Compound 521, 7-(1,4-diazabicyclo[3.2.2]non-4-yl)-3-(7-methylimidazo[1,2-a]pyridin-2-yl)-2H-chromen-2-one] registered a melting point of 216 to 223 °C. In data set [1] (24 h), the EC (1.5-fold) was in the range of 0.3 to 1 µM. The “maximum fold (Fold) increase” value in the data set with Smn protein was “** (fold increase between >1.2 and ≤1.35)”.
In turn, `Cc1nccn2cc(-c3cc4ccc(N5CCN6CCC[C@@H]6C5)cc4oc3=O)cc12` [Compound 636, 7-[(8aR)-hexahydropyrrolo[1,2-a]pyrazin-2(1H)-yl]-3-(1-methylpyrrolo[1,2-a]pyrazin-7-yl)-2H-chromen-2-one] returned a melting point of 170 to 173 °C. In data set [1] (setting [2]), the EC (1.5-fold) is less than 0.1 µM. The “maximum fold (Fold) increase” value in the data set with Smn protein was “** (fold increase between >1.2 and ≤1.35)”.
For the compound `Cc1cn2cc(-c3cc4ccc(O[C@@H]5CCNC5)cc4oc3=O)nc2s1.Cl.Cl` [Compound 325, 3-(2-methylimidazo[2,1-b][1,3]thiazol-6-yl)-7-[(3R)-pyrrolidin-3-yloxy]-2H-chromen-2-one hydrochloride (1:2)], the melting point fell in the range of 230 to 235 °C. Further, the EC (1.5-fold) in data set [1] (setting [2]) lay within 0.3 to 1 µM. Moreover, the “maximum fold (Fold) increase” value with Smn protein is on record as “* (maximum fold increase of ≤1.2)”.
The corresponding values for `O=c1oc2cc(N3CCNCC3)cc(F)c2cc1-c1cc(F)cc(F)c1` [Cpd 290, 3-(3,5-difluorophenyl)-5-fluoro-7-(piperazin-1-yl)-2H-chromen-2-one] are 193 to 198 °C, 0.3 to 1 µM and “* (maximum fold increase of ≤1.2)”.
Consider `C[C@@H]1CN(c2ccc3cc(-c4cn5cc(Cl)cnc5n4)c(=O)oc3c2)C[C@H](C)N1` [Compound 349, 3-(6-chloroimidazo[1,2-a]pyrimidin-2-yl)-7-[(3R,5S)-3,5-dimethylpiperazin-1-yl]-2H-chromen-2-one], for which the melting point is 265 to 271 °C. The EC (1.5-fold) in data set [1] (setting [2]) lay in the range of 1 to 3 µM. Also, the “maximum fold (Fold) increase” value in the data set with Smn protein is reported as “* (maximum fold increase of ≤1.2)”.
On the same counts, the results for `Cc1cccc2[nH]c(-c3cc4ccc(N5CCNCC5)cc4oc3=O)nc12` [Compound 394, 3-(4-methyl-1H-benzimidazol-2-yl)-7-(piperazin-1-yl)-2H-chromen-2-one] are 206 to 211 °C, 3 to 30 µM and “* (maximum fold increase of ≤1.2)”.
`Cc1cn2cc(-c3cc4c(F)cc(N5CCCNCC5)cc4oc3=O)nc2cn1` [Compound 550, 7-(1,4-diazepan-1-yl)-5-fluoro-3-(6-methylimidazo[1,2-a]pyrazin-2-yl)-2H-chromen-2-one]: the melting point was 270 to 274 °C. The EC (1.5-fold) in data set [1] (setting [2]) is less than 0.1 µM. For the same compound, in the data set with Smn protein, the EC1.5x (concentration giving 1.5-fold Smn protein increase) was less than 300 nM; the “maximum fold (Fold) increase” value is “**** (fold increase between >1.5 and ≤1.65)”.

(Values after patent USRE47689E1, “Compounds for treating spinal muscular atrophy” (PTC Therapeutics, Inc., priority 2011, dated 2019).)
